Results taken from ChEMBL document CHEMBL4818998, “Melatonin derivatives combat with inflammation-related cancer by targeting the Main Culprit STAT3” (Eur J Med Chem, 2021).
Active and inactive are the calls of the source. No cut-off for these calls is given here.

Experiments:
MCF7 = assay: Antiproliferative activity against human MCF7 cells assessed as inhibition of cell proliferation measured after 72 hrs by MTT assay; type: functional, cell-based; details: MCF7, 72 h
HepG2 = assay: Antiproliferative activity against human HepG2 cells assessed as inhibition of cell proliferation measured after 72 hrs by MTT assay; type: functional, cell-based; details: HepG2, 72 h
A549 = assay: Antiproliferative activity against human A549 cells assessed as inhibition of cell proliferation measured after 72 hrs by MTT assay; type: functional, cell-based; details: A549, 72 h
MGC-803 [1] = assay: Antiproliferative activity against human MGC-803 cells assessed as inhibition of cell proliferation measured after 72 hrs by MTT assay; type: functional, cell-based; details: MGC-803, 72 h
SGC-7901 = assay: Antiproliferative activity against human SGC-7901 cells assessed as inhibition of cell proliferation measured after 72 hrs by MTT assay; type: functional, cell-based; details: SGC-7901, 72 h
HGC-27 = assay: Antiproliferative activity against human HGC-27 cells assessed as inhibition of cell proliferation measured after 72 hrs by MTT assay; type: functional, cell-based; details: HGC-27, 72 h
AGS = assay: Antiproliferative activity against human AGS cells assessed as inhibition of cell proliferation measured after 72 hrs by MTT assay; type: functional, cell-based
[2] = Cytotoxicity against human HCT-116 cells assessed as cell viability at <36 uM measured after 24 hrs by CCK8 assay; type: cell-based; details: read-out: Activity
MGC-803 [3] = assay: Cytotoxicity against human MGC-803 cells assessed as reduction in cell viability at <20 uM measured after 24 hrs by CCK8 assay; type: cell-based; details: mgc-803, 24 h
HCT-116 [4] = assay: Cytotoxicity against human HCT-116 cells assessed as reduction in cell viability at <=20 uM measured after 48 hrs by CCK8 assay; type: cell-based; details: hct-116, 48 h
MGC-803 [5] = assay: Cytotoxicity against human MGC-803 cells assessed as reduction in cell viability at <=10 uM measured after 48 hrs by CCK8 assay; type: cell-based; details: mgc-803, 48 h
HCT-116 [6] = assay: Inhibition of clonogenicity in human HCT-116 cells assessed as reduction in colony formation measured after 9 days by crystal violet staining based analysis; type: functional, cell-based; details: dose 1.25-10 µM, time 9.0 day
MGC-803 [7] = assay: Inhibition of clonogenicity in human MGC-803 cells assessed as reduction in colony formation measured after 6 days by crystal violet staining based analysis; type: functional, cell-based; details: dose 2-16 µM, time 6.0 day
MGC-803 [8] = assay: Antiproliferative activity against human MGC-803 cells assessed as decrease in cell population at S-phase at 2 to 16 uM measured after 24 hrs by EdU incorporation based fluorescence microscopic analysis; type: functional; details: dose 2-16 µM
HCT-116 [9] = assay: Induction of cell cycle arrest in human HCT116 cells assessed as accumulation of cells at G0/G1 phase at 20 uM measured after 48 hrs by propidium iodide staining based flow cytometry analysis (reference value: 70.45%); type: functional
HCT-116 [10] = assay: Induction of apoptosis in human HCT-116 cells assessed as late apoptotic cells at 2.5 uM measured after 48 hrs by Annexin V-FITC/PI staining based flow cytometry assay (reference value: 1.42%); type: functional
HCT-116 [11] = assay: Induction of apoptosis in human HCT-116 cells assessed as viable cells at 5 uM measured after 48 hrs by Annexin V-FITC/PI staining based flow cytometry (reference value: 94.9%); type: functional; details: read-out: Activity
HCT-116 [12] = assay: Induction of apoptosis in human HCT-116 cells assessed as early apoptotic cells at 5 uM measured after 48 hrs by Annexin V-FITC/PI staining based flow cytometry (reference value: 2.14%); type: functional
HCT-116 [13] = assay: Induction of apoptosis in human HCT-116 cells assessed as late apoptotic cells at 5 uM measured after 48 hrs by Annexin V-FITC/PI staining based flow cytometry (reference value: 1.42%); type: functional
HCT-116 [14] = assay: Induction of apoptosis in human HCT-116 cells assessed as necrotic cells at 10 uM measured after 48 hrs by Annexin V-FITC/PI staining based flow cytometry (reference value: 1.5%); type: functional
HCT-116 [15] = assay: Induction of apoptosis in human HCT-116 cells assessed as viable cells at 20 uM measured after 48 hrs by Annexin V-FITC/PI staining based flow cytometry (reference value: 94.9%); type: functional; details: read-out: Activity
HCT-116 [16] = assay: Induction of apoptosis in human HCT-116 cells assessed as late apoptotic cells at 20 uM measured after 48 hrs by Annexin V-FITC/PI staining based flow cytometry (reference value: 1.42%); type: functional
HCT-116 [17] = assay: Induction of apoptosis in human HCT-116 cells assessed as necrotic cells at 20 uM measured after 48 hrs by Annexin V-FITC/PI staining based flow cytometry (reference value: 1.5%); type: functional
HCT-116 [18] = assay: Induction of apoptosis in human HCT-116 cells assessed as formation of apoptotic bodies at 2.5 to 15 uM measured after 48 hrs by Giemsa staining method; type: functional, cell-based; details: dose 2.5-15 µM
HCT-116 [19] = assay: Induction of apoptosis in human HCT-116 cells assessed as chromatin pyknosis at 2.5 to 15 uM measured after 48 hrs by Giemsa staining method; type: functional, cell-based; details: dose 2.5-15 µM
HCT-116 [20] = assay: Antimetastatic activity against human HCT-116 cells assessed as inhibition of cell invasion measured after 36 hrs by transwell assay; type: functional, cell-based; details: dose 2.5-15 µM
RAW264.7 [21] = assay: Anti-inflammatory activity against mouse RAW264.7 cells assessed as decrease in LPS-induced IL-6 secretion measured after 24 hrs by ELISA; type: functional, cell-based; details: dose 5-20 µM
MGC-803 [22] = assay: Downregulation of STAT3 expression in human MGC-803 cells at 4 to 16 uM measured after 48 hrs by western blot assay; type: functional, cell-based; details: dose 4-16 µM
[23] = target: Signal transducer and activator of transcription 3 (Homo sapiens) (UniProt P40763); assay: Inhibition of STAT3 in human MGC-803 cells assessed as decrease in STAT3 phosphorylation at 4 to 16 uM measured after 48 hrs by western blot assay; type: cell-based; details: dose 4-16 µM
HCT-116 [24] = assay: Induction of ROS generation in human HCT-116 cells at 2.5 to 15 uM measured after 36 hrs by DCFH-DA staining based fluorescence microscopic analysis; type: functional, cell-based; details: dose 2.5-15 µM
HCT-116 [25] = assay: Induction of apoptosis in human HCT-116 cells assessed as upregulation of Bax expression at 2.5 to 10 uM measured after 48 hrs by western blot assay; type: functional, cell-based; details: dose 2.5-10 µM
[26] = Toxicity in Kunming mouse assessed as animal survival at 1000 mg/kg, ig measured for 14 days; type: organism-based; details: in vivo, po, 336 h, time 14 day
[27] = Toxicity in Kunming mouse assessed as hair condition at 1000 mg/kg, ig measured for 14 days; type: organism-based; details: in vivo, po, 336 h, time 14 day
[28] = Toxicity in Kunming mouse assessed as feeding frequency and amount at 1000 mg/kg, ig measured for 14 days; type: organism-based; details: in vivo, po, 336 h, time 14 day
[29] = Half life in Sprague-Dawley rat at 100 mg/kg, ig measured for 24 hrs by LC-MS analysis; type: ADME, organism-based; details: in vivo, po
MGC-803 [30] = assay: Antimetastatic activity against human MGC-803 cells assessed as inhibition of cell invasion measured after 24 hrs by transwell assay; type: functional, cell-based; details: dose 2.5-15 µM
RAW264.7 [31] = assay: Anti-inflammatory activity against mouse RAW264.7 cells assessed as decrease in LPS-induced TNF-alpha secretion measured after 24 hrs by ELISA; type: functional, cell-based; details: dose 5-20 µM
MGC-803 [32] = assay: Downregulation of STAT3 expression in human MGC-803 cells at 10 uM measured after 3 hrs by Hoechst/fluorochrome-conjugated antibody staining based confocal laser microscopy; type: functional, cell-based

Chain of Signal transducer and activator of transcription 3 (Homo sapiens) (P40763 whole entry): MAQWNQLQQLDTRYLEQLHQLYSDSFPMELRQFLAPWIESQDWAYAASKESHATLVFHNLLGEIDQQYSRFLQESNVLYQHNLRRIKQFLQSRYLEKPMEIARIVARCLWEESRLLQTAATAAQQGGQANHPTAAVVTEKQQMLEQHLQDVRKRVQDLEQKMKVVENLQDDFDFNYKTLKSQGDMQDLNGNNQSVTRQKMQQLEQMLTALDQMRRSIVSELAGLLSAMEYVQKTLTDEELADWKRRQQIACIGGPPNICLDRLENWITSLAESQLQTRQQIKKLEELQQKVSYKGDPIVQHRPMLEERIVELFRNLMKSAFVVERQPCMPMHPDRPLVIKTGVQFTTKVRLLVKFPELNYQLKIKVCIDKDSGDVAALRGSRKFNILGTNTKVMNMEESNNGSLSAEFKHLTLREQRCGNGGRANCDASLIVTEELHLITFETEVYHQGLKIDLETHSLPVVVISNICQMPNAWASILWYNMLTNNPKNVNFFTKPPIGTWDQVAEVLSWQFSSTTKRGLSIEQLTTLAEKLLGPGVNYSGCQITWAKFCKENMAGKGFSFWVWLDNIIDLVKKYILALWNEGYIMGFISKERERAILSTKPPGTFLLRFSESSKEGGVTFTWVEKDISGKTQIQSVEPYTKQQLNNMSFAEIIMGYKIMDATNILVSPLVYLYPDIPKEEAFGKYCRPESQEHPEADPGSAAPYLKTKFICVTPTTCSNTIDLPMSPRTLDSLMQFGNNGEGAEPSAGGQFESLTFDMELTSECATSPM

Cc1c(Cl)cccc1Nc1ccccc1C(=O)NCCc1c[nH]c2ccccc12 showed an IC50 (MCF7) of 12.8 µM, an IC50 (HepG2) of 7.37 µM and an IC50 (A549) of 18.6 µM. It also gave an IC50 (MGC-803 [1]) of 9.96 µM, an IC50 (SGC-7901) of 15.5 µM and an IC50 (HGC-27) of 15.5 µM. For the same molecule, the IC50 (AGS) was 9.12 µM, the viability at 24 h [2] was ≥ 80% and the Activity (MGC-803 [3]) was “Non-Toxic”. For the same molecule, the Activity (HCT-116 [4]) was “Non-Toxic”, the Activity (MGC-803 [5]) was “Non-Toxic” and the inhibition (HCT-116 [6]) was “Dose-Dependent Effect”. For the same molecule, the inhibition (MGC-803 [7]) was “Dose-Dependent Effect”, the Activity (MGC-803 [8]) was “Active” and the Activity (HCT-116 [9]) was 84.74%. It also gave an Activity (HCT-116 [10]) of 3.12%, a viability at 5 µM (HCT-116 [11]) of 87.8% and an Activity (HCT-116 [12]) of 5.44%. For the same molecule, the Activity (HCT-116 [13]) was 3.94%, the Activity (HCT-116 [14]) was 2.42% and the viability at 20 µM (HCT-116 [15]) was 45.9%. For the same molecule, the Activity (HCT-116 [16]) was 8.95%, the Activity (HCT-116 [17]) was 2.62% and the Activity (HCT-116 [18]) was “Active”. The Activity (HCT-116 [19]) was “Active”, the Activity (HCT-116 [20]) was “Dose-Dependent Effect” and the Activity (RAW264.7 [21]) was “Dose-Dependent Effect”. For the same molecule, the inhibition (MGC-803 [22]) was “Active”, the inhibition [23] was “Active” and the Activity (HCT-116 [24]) was “Active”. The Activity (HCT-116 [25]) was “Active”, the Activity [26] was “Non-Toxic” and the Activity [27] was “Non-Toxic”. The Activity [28] was “Non-Toxic”, the half-life [29] was 7.58 h and the Activity (MGC-803 [30]) was “Dose-Dependent Effect”. For the same molecule, the Activity (RAW264.7 [31]) was “Dose-Dependent Effect” and the inhibition (MGC-803 [32]) was “Active”.
